Experimental data taken from PMC4384300, “Evaluation of the in vitro trypanocidal activity of methylated flavonoid constituents of Vitex simplicifolia leaves” (BMC Complementary and Alternative Medicine, 2015).
Values after ≈ are worked out from the molar mass of the structure shown. Where two headings read alike, the source gives them in different places.

Key:
[1] = test system: Trypanosoma brucei rhodesiense STIB 900 bloodstream forms; assay: In vitro trypanocidal activity (Alamar Blue assay, 72 h); format: cell-based; conditions: for IC50: Trypanosoma brucei, 72 h, read-out: T.b.rhodesiense IC50; for SI: selectivity index (IC50 of L6 cells/ IC50 of T.b.rhodesiense): L6 cells versus T. b. rhodesiense
Method: Minimum essential medium (50 μl) supplemented according to a standard method, with 2-mercaptoethanol and 15% heat inactivated horse serum was added to each well of a 96-well microtiter plate. Serial three-fold compound dilutions were prepared covering a range from 90 to 0.123 μg/ml. Then 10^4 bloodstream forms of Trypanosoma brucei rhodesiense STIB 900 (a clone of a population isolated in 1982 from a patient in Tanzania) in 50 μl culture medium were added to each well and the plate incubated at 37°C under a 5% CO2 atmosphere for 72 h. Ten microlitres of Alamar Blue (12.5 mg resazurin dissolved in 100 ml distilled water) were then added to each well and incubation continued for a further 2–4 h. The plate was then read in a Spectramax Gemini XS microplate fluorometer (Molecular Devices Cooperation, Sunnyvale, CA, USA) using an excitation wavelength of 536 nm and emission wavelength of 588 nm. Fluorescence development was measured and expressed as percentage of the control. Data were transferred into the graphic programme Softmax Pro (Molecular Devices) which calculated IC50 values. Melarsoprol was used as standard drug.

L6 cells = assay: Cytotoxicity in rat skeletal myoblast cell line (L6 cells); format: cell-based
Method: Cytotoxicity was determined using a rat skeletal myoblast cell line (L6 cells). The culture medium was RPMI 1640 supplemented with L-glutamine 2 mM, HEPES 5.95 g/l, NaHCO3 2 g/l and 10% foetal bovine serum. Podophyllotoxin (Sigma-Aldrich) was used as the reference drug. The assay was performed following the antitrypanosomal assay protocol as described above. The IC50 values were calculated from the sigmoidal growth inhibition curves using Softmax Pro software (Molecular Devices Corp.). Tests were done in three independent experiments in duplicate.

[2] = T. b. rhodesiense STIB 900 bloodstream forms, 72 h incubation, Alamar Blue
[3] = rat skeletal myoblast L6 cells, cytotoxicity, read-out: L6 Cells IC50

Compound | IC50 [1, 2] | IC50 (L6 cells; [3]) | further results
2-(3′,4′-dimethoxyphenyl)-7-hydroxychromen-4-one [Compound 7] | – | – | T.b.rhodesiense IC50 [1, 2]: 10.8 µg/mL; L6 Cells IC50 (L6 cells; rat skeletal myoblast L6 cells, cytotoxicity): 1.58 µg/mL
COc1cc(-c2oc3cc(O)cc(O)c3c(=O)c2OC)ccc1O [Compound 2, 2-(5′-methoxyphenyl) 4′,5,7-trihydroxy-3-methoxychromen-4-one] | 12.3 µg/mL (≈ 37.2 µM) | 6.64 µg/mL (≈ 20.1 µM) | –
COc1cc2oc(-c3ccc(O)cc3)c(OC)c(=O)c2c(O)c1OC [Compound 3, Penduletin] | – | 14 µg/mL (≈ 40.7 µM) | T.b.rhodesiense IC50 [1, 2]: 13.8 µg/mL
COc1cc(O)c2c(=O)c(OC)c(-c3ccc(O)cc3)oc2c1 [Compound 4, 2-(4′-hydroxyphenyl)-5-hydroxy 3,7-dimethoxy chromen-4-one] | 19.4 µg/mL (≈ 61.7 µM) | 28.2 µg/mL (≈ 89.7 µM) | SI: selectivity index (IC50 of L6 cells/ IC50 of T.b.rhodesiense) [1]: 1.4
O=c1c(O)c(-c2ccc(O)cc2)oc2cc(O)cc(O)c12 [Compound 5, 2-(4-hydroxyphenyl)-3,5,7-trihydroxy chromen-4-one] | 23.7 µg/mL (≈ 82.8 µM) | 100 µg/mL (≈ 349 µM) | –
COc1ccc(-c2oc3cc(OC)c(OC)c(O)c3c(=O)c2OC)cc1OC [Compound 6, Artemetin] | 4.7 µg/mL (≈ 12.1 µM) | 46.2 µg/mL (≈ 119 µM) | SI: selectivity index (IC50 of L6 cells/ IC50 of T.b.rhodesiense) [1]: 9.8
Nc1nc(N)nc(Nc2ccc([As]3SCC(CO)S3)cc2)n1 (stereo not shown) [Melarsoprol, reference compound] | – | – | IC50 [1]: 0.002 µg/mL
COc1cc([C@@H]2c3cc4c(cc3[C@H](O)[C@H]3COC(=O)[C@H]23)OCO4)cc(OC)c1OC [Podophyllotoxin, reference compound] | – | – | IC50 (L6 cells; Rattus norvegicus, L6, read-out: L6 Cells IC50): 0.005 µg/mL (≈ 0.0121 µM)
